The results in this text go back to BindingDB's records for doi:10.1002/cbic.201000376 (Gyeongsang National University, 2010).

Alpha-glucosidase MAL12, sequence (P53341 whole entry): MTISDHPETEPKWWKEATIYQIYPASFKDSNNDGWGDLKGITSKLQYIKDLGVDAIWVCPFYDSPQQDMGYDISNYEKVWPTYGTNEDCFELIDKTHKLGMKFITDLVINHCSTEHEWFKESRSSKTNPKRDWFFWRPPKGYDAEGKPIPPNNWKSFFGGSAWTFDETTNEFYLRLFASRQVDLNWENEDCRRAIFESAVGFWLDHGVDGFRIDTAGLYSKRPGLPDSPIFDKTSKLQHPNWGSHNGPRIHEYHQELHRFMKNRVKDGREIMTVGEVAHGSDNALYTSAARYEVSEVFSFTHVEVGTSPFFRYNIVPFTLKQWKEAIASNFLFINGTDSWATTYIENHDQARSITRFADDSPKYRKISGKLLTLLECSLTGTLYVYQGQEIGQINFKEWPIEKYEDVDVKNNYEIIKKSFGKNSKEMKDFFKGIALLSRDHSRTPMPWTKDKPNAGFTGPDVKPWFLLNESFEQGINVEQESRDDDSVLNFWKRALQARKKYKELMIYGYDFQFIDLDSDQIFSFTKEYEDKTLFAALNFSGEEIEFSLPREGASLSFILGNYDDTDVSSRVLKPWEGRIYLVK

The target in this assay is Alpha-glucosidase MAL12 (Saccharomyces cerevisiae (strain ATCC 204508 / S288c), UniProt P53341). The assay can be described thus: Inhibition Assay. The procedure:
All enzymatic activities were determined by using the appropriate substrate (p-nitrophenyl-alpha-D-glucopyranoside, p-nitrophenyl-beta-D-gulcopyranoside, o-nitrophenyl-alpha-D-manno-pyranoside, p-nitrohenyl-alpha-D-galactopyranoside and strach at the pH or each enzyme.
As for `Nc1ccc(/C=C/c2ccc(O)cc2)cc1`, the IC50 was above 200 µM.

Regarding `Oc1ccc(/C=C/c2cc(O)cc(O)c2)cc1` [5-[(E)-2-(4-hydroxyphenyl)ethenyl]benzene-1,3-diol], the IC50 came to 26.4 µM and affinity was put at a Ki of 21.5 µM.

`CNc1ccc(/C=C/c2ccc(O)c(O)c2)cc1` [Stilbene derivative, 4] came in with an IC50 above 200 µM.

In turn, `CC(=O)Nc1ccc(/C=C/c2ccc(O)c(O)c2)cc1` [Stilbene derivative, 5] registered an IC50 above 200 µM. `O=C(Nc1ccccc1)Nc1ccc(/C=C/c2ccc(O)c(O)c2)cc1` [Urea derivative, 6]: the IC50 was 42.1 µM and the Ki amounted to 10.6 µM.

`COc1ccc(NC(=O)Nc2ccc(/C=C/c3ccc(O)c(O)c3)cc2)cc1` [Urea derivative, 7] had an IC50 of 19.5 µM and a Ki of 10.5 µM. On to `Nc1ccc(NC(=O)Nc2ccc(/C=C/c3ccc(O)c(O)c3)cc2)cc1` [Urea derivative, 8], for which the midpoint of inhibition, the IC50, lay at 68.5 µM.

For `Cc1ccc(NC(=O)Nc2ccc(/C=C/c3ccc(O)c(O)c3)cc2)cc1` [Urea derivative, 9], the midpoint of inhibition, the IC50, lay at 63.6 µM. `O=C(Nc1ccc(/C=C/c2ccc(O)c(O)c2)cc1)Nc1ccc(C(F)(F)F)cc1` [Urea derivative, 10] gave an IC50 of 28.8 µM and a Ki of 12.1 µM. In the case of `O=C(Nc1ccc(F)cc1)Nc1ccc(/C=C/c2ccc(O)c(O)c2)cc1` [Urea derivative, 11], inhibition was half-maximal at 19.8 µM (IC50) and affinity was put at a Ki of 7.2 µM.

For `O=C(Nc1ccc(/C=C/c2ccc(O)c(O)c2)cc1)Nc1ccc(F)cc1F` [Urea derivative, 12], the IC50 amounted to 8.4 µM and the Ki came out at 3.2 µM. In the same order, the values of `O=C(Nc1ccc(Cl)cc1)Nc1ccc(/C=C/c2ccc(O)c(O)c2)cc1` [Urea derivative, 13] are 14.3 µM and 4.6 µM. In turn, `O=C(Nc1ccccc1)Nc1ccc(/C=C/c2ccc(O)cc2)cc1` [Urea derivative, 14] showed an IC50 of 29.1 µM and a Ki of 17 µM. `COc1ccc(NC(=O)Nc2ccc(/C=C/c3ccc(O)cc3)cc2)cc1` [Urea derivative, 15] gave an IC50 of 60.1 µM.

Regarding `O=C(Nc1ccc(/C=C/c2ccc(O)cc2)cc1)Nc1ccc(F)cc1F` [Urea derivative, 16], the IC50 was 18.5 µM and the Ki was found to be 9.4 µM.

The compound `O=C(Nc1ccccc1)Nc1ccc(/C=C/c2cc(O)cc(O)c2)cc1` [Urea derivative, 17] showed an IC50 of 58.8 µM.

Consider `COc1ccc(NC(=O)Nc2ccc(/C=C/c3cc(O)cc(O)c3)cc2)cc1` [Urea derivative, 18], for which the IC50 is 105 µM. The compound `O=C(Nc1ccc(/C=C/c2cc(O)cc(O)c2)cc1)Nc1ccc(F)cc1F` [Urea derivative, 19] yielded an IC50 of 64.3 µM.
